Measurements reported in patent US9238631B2, “Radiolabeled amino acids for diagnostic imaging” (PIRAMAL IMAGING SA, priority 2011, dated 2016).

Tested on: NCI-H460 tumor
Experiment: In vivo biodistribution in NCI-H460 tumor bearing mice
Design: Summary: organs / Summary: Carcass / Summary: faeces: unit not given here
Conditions: for Summary: urine: in %; for Summary: Recovery: in % (unit assumed)
Outline: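 Biodistribution of 18F-labeled compounds was assessed in female NMRI (nu/nu) mice bearing NCI-H460 tumors, established by inoculating 5×10^6 cells 8 to 10 days beforehand. Each mouse received 185 kBq of the fluorinated tracer; at least n=3 animals per time point were sacrificed, organs excised, and radioactivity quantified with a γ-counter.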

Summary: faeces (timepoint 1.0 h): 0.01
Summary: organs (timepoint 1.0 h): 12.93
Tail (% Dosis/g) (timepoint 1.0 h): 0.41 % Dosis/g
Thyroid (% Dosis/g) (timepoint 1.0 h): 0.29 % Dosis/g
Tumor (% Dosis/g) (timepoint 1.0 h): 6.47 % Dosis/g
Tumor/Tissue: Adrenals (timepoint 1.0 h): 23.74
Tumor/Tissue: Blood (timepoint 1.0 h): 33.90
Tumor/Tissue: Bone (timepoint 1.0 h): 41.80
Tumor/Tissue: Brain (timepoint 1.0 h): 142.1
Tumor/Tissue: Fat (timepoint 1.0 h): 302.3
Tumor/Tissue: Gallbladder (timepoint 1.0 h): 0.88
Tumor/Tissue: Heart (timepoint 1.0 h): 58.14
Tumor/Tissue: Intestine (timepoint 1.0 h): 7.45
Tumor/Tissue: Kidney (timepoint 1.0 h): 3.12
Tumor/Tissue: Liver (timepoint 1.0 h): 2.99
Tumor/Tissue: Lung (timepoint 1.0 h): 18.22
Tumor/Tissue: Muscle (timepoint 1.0 h): 103.4
Tumor/Tissue: Ovaries (timepoint 1.0 h): 8.99
Tumor/Tissue: Pancreas (timepoint 1.0 h): 1.82
Tumor/Tissue: Skin (timepoint 1.0 h): 10.56
Tumor/Tissue: Spleen (timepoint 1.0 h): 4.32
Tumor/Tissue: Stomach (timepoint 1.0 h): 6.88
Tumor/Tissue: Thyroid (timepoint 1.0 h): 22.49
Tumor/Tissue: Uterus (timepoint 1.0 h): 8.25
Uterus (% Dosis/g) (timepoint 1.0 h): 0.97 % Dosis/g
Summary: urine (timepoint 1.0 h): 82.05
Summary: Recovery (timepoint 1.0 h): 98.57
Adrenals (% Dosis/g) (timepoint 2.0 h): 0.27 % Dosis/g
Blood (% Dosis/g) (timepoint 2.0 h): 0.08 % Dosis/g
Bone (% Dosis/g) (timepoint 2.0 h): 0.14 % Dosis/g
Brain (% Dosis/g) (timepoint 2.0 h): 0.05 % Dosis/g
Fat (% Dosis/g) (timepoint 2.0 h): 0.02 % Dosis/g
Gallbladder (% Dosis/g) (timepoint 2.0 h): 8.93 % Dosis/g
Heart (% Dosis/g) (timepoint 2.0 h): 0.06 % Dosis/g
Intestine (% Dosis/g) (timepoint 2.0 h): 1.12 % Dosis/g
Liver (% Dosis/g) (timepoint 2.0 h): 0.87 % Dosis/g
Muscle (% Dosis/g) (timepoint 2.0 h): 0.05 % Dosis/g
Ovaries (% Dosis/g) (timepoint 2.0 h): 0.54 % Dosis/g
Pancreas (% Dosis/g) (timepoint 2.0 h): 1.48 % Dosis/g
Skin (% Dosis/g) (timepoint 2.0 h): 0.43 % Dosis/g
Spleen (% Dosis/g) (timepoint 2.0 h): 1.29 % Dosis/g
Stomach (% Dosis/g) (timepoint 2.0 h): 0.46 % Dosis/g
Summary: Carcass (timepoint 2.0 h): 5.26
Summary: faeces (timepoint 2.0 h): 1.74
Summary: organs (timepoint 2.0 h): 8.77
Tail (% Dosis/g) (timepoint 2.0 h): 1.44 % Dosis/g
Thyroid (% Dosis/g) (timepoint 2.0 h): 0.26 % Dosis/g
Tumor (% Dosis/g) (timepoint 2.0 h): 7.21 % Dosis/g
Tumor/Tissue: Adrenals (timepoint 2.0 h): 27.83
Tumor/Tissue: Blood (timepoint 2.0 h): 86.51
Tumor/Tissue: Bone (timepoint 2.0 h): 57.86
Tumor/Tissue: Brain (timepoint 2.0 h): 161.0
Tumor/Tissue: Fat (timepoint 2.0 h): 396.0
Tumor/Tissue: Gallbladder (timepoint 2.0 h): 0.81
Tumor/Tissue: Heart (timepoint 2.0 h): 126.5
Tumor/Tissue: Intestine (timepoint 2.0 h): 6.58
Tumor/Tissue: Kidney (timepoint 2.0 h): 11.24
Tumor/Tissue: Liver (timepoint 2.0 h): 8.46
Tumor/Tissue: Lung (timepoint 2.0 h): 29.67
Tumor/Tissue: Muscle (timepoint 2.0 h): 169.9
Tumor/Tissue: Ovaries (timepoint 2.0 h): 13.81
Tumor/Tissue: Pancreas (timepoint 2.0 h): 4.90
Tumor/Tissue: Skin (timepoint 2.0 h): 39.91
Tumor/Tissue: Spleen (timepoint 2.0 h): 5.82
Tumor/Tissue: Stomach (timepoint 2.0 h): 16.25
Tumor/Tissue: Thyroid (timepoint 2.0 h): 35.78
Tumor/Tissue: Uterus (timepoint 2.0 h): 15.37
Uterus (% Dosis/g) (timepoint 2.0 h): 0.50 % Dosis/g
Summary: urine (timepoint 2.0 h): 83.35
Summary: Recovery (timepoint 2.0 h): 99.00
Adrenals (% Dosis/g) (timepoint 4.0 h): 0.16 % Dosis/g
Blood (% Dosis/g) (timepoint 4.0 h): 0.04 % Dosis/g
Bone (% Dosis/g) (timepoint 4.0 h): 0.06 % Dosis/g
Brain (% Dosis/g) (timepoint 4.0 h): 0.02 % Dosis/g
Fat (% Dosis/g) (timepoint 4.0 h): 0.01 % Dosis/g
Gallbladder (% Dosis/g) (timepoint 4.0 h): 6.45 % Dosis/g
Heart (% Dosis/g) (timepoint 4.0 h): 0.04 % Dosis/g
Intestine (% Dosis/g) (timepoint 4.0 h): 0.93 % Dosis/g
Muscle (% Dosis/g) (timepoint 4.0 h): 0.03 % Dosis/g
Ovaries (% Dosis/g) (timepoint 4.0 h): 0.24 % Dosis/g
Pancreas (% Dosis/g) (timepoint 4.0 h): 0.27 % Dosis/g
Skin (% Dosis/g) (timepoint 4.0 h): 0.37 % Dosis/g
Spleen (% Dosis/g) (timepoint 4.0 h): 0.59 % Dosis/g
Stomach (% Dosis/g) (timepoint 4.0 h): 0.21 % Dosis/g
Summary: Carcass (timepoint 4.0 h): 1.09
Summary: faeces (timepoint 4.0 h): 0.25
Summary: organs (timepoint 4.0 h): 6.12
Tail (% Dosis/g) (timepoint 4.0 h): 0.55 % Dosis/g
Thyroid (% Dosis/g) (timepoint 4.0 h): 0.08 % Dosis/g
Tumor (% Dosis/g) (timepoint 4.0 h): 5.17 % Dosis/g
Tumor/Tissue: Adrenals (timepoint 4.0 h): 41.62
Tumor/Tissue: Blood (timepoint 4.0 h): 148.1
Tumor/Tissue: Bone (timepoint 4.0 h): 91.73
Tumor/Tissue: Brain (timepoint 4.0 h): 237.6
Tumor/Tissue: Fat (timepoint 4.0 h): 2513
Tumor/Tissue: Gallbladder (timepoint 4.0 h): 1.11
Tumor/Tissue: Heart (timepoint 4.0 h): 153.2
Tumor/Tissue: Intestine (timepoint 4.0 h): 5.57
Tumor/Tissue: Kidney (timepoint 4.0 h): 28.19
Tumor/Tissue: Liver (timepoint 4.0 h): 18.60
Tumor/Tissue: Lung (timepoint 4.0 h): 227.5
Tumor/Tissue: Muscle (timepoint 4.0 h): 185.7
Tumor/Tissue: Ovaries (timepoint 4.0 h): 21.39
Tumor/Tissue: Pancreas (timepoint 4.0 h): 19.41
Tumor/Tissue: Skin (timepoint 4.0 h): 16.05
Tumor/Tissue: Spleen (timepoint 4.0 h): 8.58
Tumor/Tissue: Stomach (timepoint 4.0 h): 24.28
Tumor/Tissue: Thyroid (timepoint 4.0 h): 64.78
Tumor/Tissue: Uterus (timepoint 4.0 h): 23.55
Uterus (% Dosis/g) (timepoint 4.0 h): 0.21 % Dosis/g
Summary: urine (timepoint 4.0 h): 92.66
Summary: Recovery (timepoint 4.0 h): 100.1
SMILES: N[C@@H](CCC(Cc1ccc(OCC[18F])cc1)C(=O)O)C(=O)O (stereo partly drawn) [[^18F]-12] [(2S)-2-Amino-5-[4-(2-[^18F]fluoroethoxy)benzyl]hexanedioic acid]
